Data: ChEMBL document CHEMBL1146773, “Synthesis of dammarane-type triterpenoids with anti-inflammatory activity in vivo” (2004)

Legend:
Assay type in all cases: functional
Mus musculus [1] = experiment: In vivo anti-inflammatory activity determined by inhibition of oxazolone-induced allergic contact dermatitis (ACD) in mouse up on tropical application; set-up: concentration or dose not given beside the values
Mus musculus [2] = experiment: In vivo antiinflammatory activity of 0.04 uM concentration of compound was determined by inhibition of oxazolone-induced allergic contact dermatitis (ACD) in mouse up on tropical application
Mus musculus [3] = experiment: In vivo antiinflammatory activity of 0.4 uM concentration of compound was determined by inhibition of oxazolone-induced allergic contact dermatitis (ACD) in mouse up on tropical application
Mus musculus [4] = experiment: In vivo antiinflammatory activity of 40 uM concentration of compound was determined by inhibition of oxazolone-induced allergic contact dermatitis (ACD) in mouse up on tropical application
Mus musculus [5] = experiment: In vivo antiinflammatory activity of compound was determined by inhibition of oxazolone-induced allergic contact dermatitis (ACD) in mouse up on tropical application
Sus scrofa [6] = experiment: In vivo antiinflammatory activity of 130 uM concentration of compound was determined by inhibition of oxazolone-induced allergic contact dermatitis (ACD) in pig up on tropical application
Sus scrofa [7] = experiment: In vivo antiinflammatory activity of 40 uM concentration of compound was determined by inhibition of oxazolone-induced allergic contact dermatitis (ACD) in pig up on tropical application
Sus scrofa [8] = experiment: In vivo antiinflammatory activity of 400 uM concentration of compound was determined by inhibition of oxazolone-induced allergic contact dermatitis (ACD) in pig up on tropical application
Mus musculus [9] = experiment: In vivo antiinflammatory activity of 4 uM concentration of compound was determined by inhibition of oxazolone-induced allergic contact dermatitis (ACD) in mouse up on tropical application

C[C@H](NC(=O)/C=C/c1ccccc1)[C@H]1CC[C@]2(C)[C@@H]1CC[C@H]1[C@H]2CC[C@H]2C(C)(C)[C@@H](O)CC[C@]12C was tested, and the Inhibition (Mus musculus [1]) was 11%.

CC(NCCc1ccccc1-n1ccnc1)[C@H]1CC[C@]2(C)[C@@H]1CC[C@H]1[C@H]2CC[C@H]2C(C)(C)[C@@H](O)CC[C@]12C (stereo not given in full) was tested, and the Inhibition (Mus musculus [1]) was 13%.

CC1(C)[C@@H](O)CC[C@]2(C)[C@H]3CC[C@@H]4[C@@H](C(CCc5ccccc5)NCc5ccccc5)CC[C@@]4(C)[C@@H]3CC[C@@H]12 (stereo in doubt; 12A) gave an Inhibition (Mus musculus [1]) of 22%.

Molecule CC1(C)[C@@H](O)CC[C@]2(C)[C@H]3CC[C@@H]4[C@@H](C(O)CCc5ccccc5)CC[C@@]4(C)[C@@H]3CC[C@@H]12 (stereo in doubt; 11B) has an Inhibition (Mus musculus [1]) of 14%.

With C[C@H](N)[C@H]1CC[C@]2(C)[C@@H]1CC[C@H]1[C@H]2CC[C@H]2C(C)(C)[C@@H](O)CC[C@]12C (stereo in doubt; 5B) the Inhibition (Mus musculus [1]) was 41%.

C=C(CCc1ccccc1)[C@H]1CC[C@]2(C)[C@@H]1CC[C@H]1[C@H]2CC[C@H]2C(C)(C)[C@@H](O)CC[C@]12C showed an Inhibition (Mus musculus [1]) of 36%.

In the case of C[C@@H]1C[C@H]2[C@@H]3CCC4=CC(=O)C=C[C@]4(C)[C@@]3(F)[C@@H](O)C[C@]2(C)[C@@]1(O)C(=O)CO [DEXAMETHASONE], the Inhibition (Mus musculus [2]) is reported as 16%, the Inhibition (Mus musculus [3]) is reported as 41% and the Inhibition (Mus musculus [4]) is reported as 35%. The Inhibition (Mus musculus [5]) was 42%, the Inhibition (Sus scrofa [6]) was 35% and the Inhibition (Sus scrofa [7]) was 20%. For the same molecule, the Inhibition (Sus scrofa [8]) was 32%.

With CC(CCc1ccccc1)[C@H]1CC[C@]2(C)[C@@H]1CC[C@H]1[C@H]2CC[C@H]2C(C)(C)[C@@H](O)CC[C@]12C (stereo in doubt; 15A) the Inhibition (Mus musculus [1]) was 30%.

CC(NCCc1ccc(S(N)(=O)=O)cc1)[C@H]1CC[C@]2(C)[C@@H]1CC[C@H]1[C@H]2CC[C@H]2C(C)(C)[C@@H](O)CC[C@]12C (stereo not given in full) was tested, and the Inhibition (Mus musculus [1]) was 16%.

CC(=O)[C@H]1CC[C@]2(C)[C@@H]1CC[C@@H]1[C@@]3(C)CC[C@H](O)C(C)(C)[C@@H]3CC[C@]12C gave an Inhibition (Mus musculus [1]) of 12%.

Work on CC(NCc1ccccc1)[C@H]1CC[C@]2(C)[C@@H]1CC[C@H]1[C@H]2CC[C@H]2C(C)(C)[C@@H](O)CC[C@]12C (stereo in doubt; 4bA) yielded an Inhibition (Mus musculus [1]) of 28%.

In the case of CC(NCC(=O)OC(C)(C)C)[C@H]1CC[C@]2(C)[C@@H]1CC[C@H]1[C@H]2CC[C@H]2C(C)(C)[C@@H](O)CC[C@]12C (stereo in doubt; 4dB), the Inhibition (Mus musculus [1]) is reported as 21%.

CC1(C)[C@@H](O)CC[C@]2(C)[C@H]3CC[C@@H]4[C@@H](C(O)CCc5ccccc5)CC[C@@]4(C)[C@@H]3CC[C@@H]12 (stereo in doubt; 11A) was tested, and the Inhibition (Mus musculus [1]) was 12%.

CC1(C)[C@@H](O)CC[C@]2(C)[C@H]3CC[C@@H]4[C@@H](C(N)CCc5ccccc5)CC[C@@]4(C)[C@@H]3CC[C@@H]12 (stereo in doubt; 13A) showed an Inhibition (Mus musculus [1]) of 30%.

For CC(NCc1ccccc1)[C@H]1CC[C@]2(C)[C@@H]1CC[C@H]1[C@H]2CC[C@H]2C(C)(C)[C@@H](O)CC[C@]12C (stereo in doubt; 4bB), the Inhibition (Mus musculus [1]) was 15%.

For CC(CCc1ccccc1)[C@H]1CC[C@]2(C)[C@@H]1CC[C@H]1[C@H]2CC[C@H]2C(C)(C)[C@@H](O)CC[C@]12C (stereo in doubt; 15B), the Inhibition (Mus musculus [1]) was 29%.

CCCCNC(C)[C@H]1CC[C@]2(C)[C@@H]1CC[C@H]1[C@H]2CC[C@H]2C(C)(C)[C@@H](O)CC[C@]12C (stereo in doubt; 4aA) was tested, and the Inhibition (Mus musculus [1]) was 30%.

For C[C@H](N)[C@H]1CC[C@]2(C)[C@@H]1CC[C@H]1[C@H]2CC[C@H]2C(C)(C)[C@@H](O)CC[C@]12C (stereo in doubt; 5A), the Inhibition (Mus musculus [1]) was 38%.

CCCCNC(C)[C@H]1CC[C@]2(C)[C@@H]1CC[C@H]1[C@H]2CC[C@H]2C(C)(C)[C@@H](O)CC[C@]12C (stereo in doubt; 4aB) was tested, and the Inhibition (Mus musculus [1]) was 28%.

For CC1(C)[C@@H](O)CC[C@]2(C)[C@H]3CC[C@@H]4[C@@H](C(CCc5ccccc5)NCc5ccccc5)CC[C@@]4(C)[C@@H]3CC[C@@H]12 (stereo in doubt; 12B), the Inhibition (Mus musculus [1]) was 15%.

CC(NCc1nc2ccccc2[nH]1)[C@H]1CC[C@]2(C)[C@@H]1CC[C@H]1[C@H]2CC[C@H]2C(C)(C)[C@@H](O)CC[C@]12C (stereo not given in full) was tested, and the Inhibition (Mus musculus [1]) was 27%.

In the case of CC1(C)[C@@H](O)CC[C@]2(C)[C@H]3CC[C@@H]4[C@@H](C(N)CCc5ccccc5)CC[C@@]4(C)[C@@H]3CC[C@@H]12 (stereo in doubt; 13B), the Inhibition (Mus musculus [1]) is reported as 6%.

CC(C)CCC(=O)N[C@@H](C)[C@H]1CC[C@]2(C)[C@@H]1CC[C@H]1[C@H]2CC[C@H]2C(C)(C)[C@@H](O)CC[C@]12C gave an Inhibition (Mus musculus [1]) of 33%.

In the case of C=C(C/C=C/C(C)(C)O)[C@@H]1CC[C@]2(C)[C@@H]1CC[C@@H]1[C@@]3(C)CC[C@H](O)C(C)(C)[C@@H]3CC[C@]12C, the Inhibition (Mus musculus [3]) is reported as 6%, the Inhibition (Mus musculus [9]) is reported as 37% and the Inhibition (Mus musculus [4]) is reported as 65%. It also gave an Inhibition (Sus scrofa [6]) of 43% and an Inhibition (Sus scrofa [7]) of 28%.

Work on CC(NCC(=O)OC(C)(C)C)[C@H]1CC[C@]2(C)[C@@H]1CC[C@H]1[C@H]2CC[C@H]2C(C)(C)[C@@H](O)CC[C@]12C (stereo in doubt; 4dA) yielded an Inhibition (Mus musculus [1]) of 31%.
